The NIST ThermoML archive (doi:10.1021/je049778g)
Numbers after ± are expanded uncertainties.

Conditions: Liquid; for mass density: 298.15 K, 101.33 kPa

## CO [methanol]
  mass density: 786.5 ± 0.3 kg/m3
  Normal boiling temperature: 64.52 ± 0.03 °C

## CCCO [propan-1-ol]
  mass density: 799.5 ± 0.2 kg/m3
  Normal boiling temperature: 97.04 ± 0.03 °C

## CCO [ethanol]
  mass density: 785.1 ± 0.3 kg/m3
  Normal boiling temperature: 78.31 ± 0.03 °C

## CC(C)O [propan-2-ol]
  mass density: 780.8 ± 0.3 kg/m3
  Normal boiling temperature: 82.26 ± 0.03 °C
